The text below walks through data of ChEMBL document CHEMBL1129860, “Studies on penam sulfones III. Synthesis and -lactamase inhibitory activity of sodium (6R)-6-(-hydroxybenzyl)-2-methoxyiminomethyl-2-methylpenam-3-carboxylate 1,1-dioxide and sodium 2-acyl-2-methylpenam-3-carboxylate 1,1-dioxide” (1997).

In general, MIC refers to the lowest concentration that inhibits growth of the organism.

Common to all, as to format: functional
The subject of test [1] is Enterobacter cloacae. Description: In vitro minimal inhibitory concentration (MIC) of compound against Enterobacter cloacae 40011.
The test system of test [2] is Enterobacter cloacae. Description: In vitro minimal inhibitory concentration (MIC) of compound against Enterobacter cloacae E40002.
Test [3] concerns Pseudomonas aeruginosa. Kind of test: In vitro minimal inhibitory concentration (MIC) of compound against Pseudomonas aeruginosa 46220 (DR-2).
Test [4] relates to Proteus vulgaris. Kind of test: In vitro minimal inhibitory concentration (MIC) of compound against Proteus vulgaris CT 106.
In test [5] the test system is Enterobacter cloacae. Description: In vitro minimal inhibitory concentration (MIC) of compound against Enterobacter cloacae S-65.
Test [6] has as its system Pseudomonas aeruginosa. Description: In vitro minimal inhibitory concentration (MIC) of compound against Pseudomonas aeruginosa CT-122.
Test [7] deals with Enterobacter cloacae. Kind of test: In vitro minimal inhibitory concentration (MIC) of compound against Enterobacter cloacae S-11.
Test [8] concerns Enterobacter cloacae. Kind of test: In vitro minimal inhibitory concentration (MIC) of compound against Enterobacter cloacae P99.
Test [9] has as its system Klebsiella aerogenes. Description: In vitro minimal inhibitory concentration (MIC) of compound against Enterobacter aerogenes 41004.
Test [10] concerns Klebsiella aerogenes. Description: In vitro minimal inhibitory concentration (MIC) of compound against Enterobacter aerogenes S-97.
The test system of test [11] is Klebsiella aerogenes. Description: In vitro minimal inhibitory concentration (MIC) of compound against Enterobacter aerogenes 41006.
In test [12] the test system is Escherichia coli. Description: In vitro minimal inhibitory concentration (MIC) of compound against Escherichia coli TEM 3.
In test [13] the test system is Pseudomonas aeruginosa. Kind of test: In vitro minimal inhibitory concentration (MIC) of compound against Pseudomonas aeruginosa CT-137.
The subject of test [14] is Klebsiella pneumoniae. Description: In vitro minimal inhibitory concentration (MIC) of compound against Klebsiella pneumoniae CTX 1.
The subject of test [15] is Escherichia coli. Kind of test: In vitro minimal inhibitory concentration (MIC) of compound against Escherichia coli TEM 7.
Test [16] has as its system Morganella morganii. Kind of test: In vitro minimal inhibitory concentration (MIC) of compound against Morganella morganii 36014.
The test system of test [17] is Citrobacter freundii. Kind of test: In vitro minimal inhibitory concentration (MIC) of compound against Citrobacter freundii CT 76.
In test [18] the test system is Klebsiella aerogenes. Description: In vitro minimal inhibitory concentration (MIC) of compound against Enterobacter aerogenes 41003.
Test [19] deals with Citrobacter freundii. Kind of test: In vitro minimal inhibitory concentration (MIC) of compound against Citrobacter freundii 44032.
For test [20], the system named is Morganella morganii. Description: In vitro minimal inhibitory concentration (MIC) of compound against Morganella morganii 36030.
Test [21] has as its system Pseudomonas aeruginosa. Kind of test: In vitro minimal inhibitory concentration (MIC) of compound in combination with Ceftazidime (CAZ) showed synergic activity against Pseudomonas aeruginosa 46220 (DR-2).
The subject of test [22] is Citrobacter freundii. Description: In vitro minimal inhibitory concentration (MIC) of compound in combination with Ceftazidime (CAZ) showed synergic activity against Citrobacter freundii 44032.
The subject of test [23] is Enterobacter cloacae. Description: In vitro minimal inhibitory concentration (MIC) of compound in combination with Ceftazidime (CAZ) showed synergic activity against Enterobacter cloacae E40002.
In test [24] the test system is Enterobacter cloacae. Kind of test: In vitro minimal inhibitory concentration (MIC) of compound in combination with Ceftazidime (CAZ) showed synergic activity against Enterobacter cloacae P99.
Test [25] concerns Escherichia coli. Kind of test: In vitro minimal inhibitory concentration (MIC) of compound in combination with Ceftazidime (CAZ) showed synergic activity against Escherichia coli TEM 7.
Test [26] relates to Proteus vulgaris. Kind of test: In vitro minimal inhibitory concentration (MIC) of compound in combination with Ceftazidime (CAZ) showed synergic activity against Proteus vulgaris CT 106.
Test [27] concerns Klebsiella pneumoniae. Description: In vitro minimal inhibitory concentration (MIC) of compound in combination with Ceftazidime (CAZ) showed synergic activity against Klebsiella pneumoniae CTX 1.
For test [28], the system named is Morganella morganii. Kind of test: In vitro minimal inhibitory concentration (MIC) of compound in combination with Ceftazidime (CAZ) showed synergic activity against Morganella morganii 36014.
For test [29], the system named is Enterobacter cloacae. Kind of test: In vitro minimal inhibitory concentration (MIC) of compound in combination with Ceftazidime (CAZ) showed synergic activity against Enterobacter cloacae 40011.
Test [30] relates to Klebsiella aerogenes. Kind of test: In vitro minimal inhibitory concentration (MIC) of compound in combination with Ceftazidime (CAZ) showed synergic activity against Enterobacter aerogenes 41003.
Test [31] relates to Citrobacter freundii. Kind of test: In vitro minimal inhibitory concentration (MIC) of compound in combination with Ceftazidime (CAZ) showed synergic activity against Citrobacter freundii CT 76.
For test [32], the system named is Klebsiella aerogenes. Description: In vitro minimal inhibitory concentration (MIC) of compound in combination with Ceftazidime (CAZ) showed synergic activity against Enterobacter aerogenes 41004.
Test [33] concerns Klebsiella aerogenes. Description: In vitro minimal inhibitory concentration (MIC) of compound in combination with Ceftazidime (CAZ) showed synergic activity against Enterobacter aerogenes 41006.
In test [34] the test system is Escherichia coli. Description: In vitro minimal inhibitory concentration (MIC) of compound in combination with Ceftazidime (CAZ) showed synergic activity against Escherichia coli TEM 3.
Test [35] deals with Proteus vulgaris. Description: In vitro minimal inhibitory concentration (MIC) of compound in combination with piperacillin (PIPC) showed synergic activity against Proteus vulgaris CT 106.
The test system of test [36] is Escherichia coli. Description: In vitro minimal inhibitory concentration (MIC) of compound in combination with piperacillin (PIPC) showed synergic activity against Escherichia coli TEM 7.
Test [37] has as its system Enterobacter cloacae. Description: In vitro minimal inhibitory concentration (MIC) of compound in combination with piperacillin (PIPC) showed synergic activity against Enterobacter cloacae P99.
The subject of test [38] is Klebsiella aerogenes. Kind of test: In vitro minimal inhibitory concentration (MIC) of compound in combination with piperacillin (PIPC) showed synergic activity against Enterobacter aerogenes 41003.
Test [39] deals with Escherichia coli. Kind of test: In vitro minimal inhibitory concentration (MIC) of compound in combination with piperacillin (PIPC) showed synergic activity against Escherichia coli TEM 3.
The test system of test [40] is Citrobacter freundii. Kind of test: In vitro minimal inhibitory concentration (MIC) of compound in combination with piperacillin (PIPC) showed synergic activity against Citrobacter freundii 2046E.
The test system of test [41] is Klebsiella aerogenes. Kind of test: In vitro minimal inhibitory concentration (MIC) of compound in combination with piperacillin (PIPC) showed synergic activity against Enterobacter aerogenes 41006.
Test [42] has as its system Staphylococcus aureus. Description: In vitro minimal inhibitory concentration (MIC) of compound in combination with piperacillin (PIPC) showed synergic activity against Staphylococcus aureus 80K.
Test [43] concerns Escherichia coli. Kind of test: In vitro minimal inhibitory concentration (MIC) of compound in combination with piperacillin (PIPC) showed synergic activity against Escherichia coli SHV 5.
The test system of test [44] is Enterobacter cloacae. Description: In vitro minimal inhibitory concentration (MIC) of compound in combination with piperacillin (PIPC) showed synergic activity against Enterobacter cloacae 40011.
The test system of test [45] is Pseudomonas aeruginosa. Kind of test: In vitro minimal inhibitory concentration (MIC) of compound in combination with piperacillin (PIPC) showed synergic activity against Pseudomonas aeruginosa 46220 (DR-2).
The subject of test [46] is Escherichia coli. Description: In vitro minimal inhibitory concentration (MIC) of compound in combination with piperacillin (PIPC) showed synergic activity against Escherichia coli SHV 1.
Test [47] has as its system Staphylococcus aureus. Description: In vitro minimal inhibitory concentration (MIC) of compound in combination with piperacillin (PIPC) showed synergic activity against Staphylococcus aureus 54K.
Test [48] relates to Escherichia coli. Kind of test: In vitro minimal inhibitory concentration (MIC) of compound in combination with piperacillin (PIPC) showed synergic activity against Escherichia coli OXA 3.
Test [49] has as its system Morganella morganii. Description: In vitro minimal inhibitory concentration (MIC) of compound in combination with piperacillin (PIPC) showed synergic activity against Morganella morganii 36014.
In test [50] the test system is Escherichia coli. Kind of test: In vitro minimal inhibitory concentration (MIC) of compound in combination with piperacillin (PIPC) showed synergic activity against Escherichia coli OXA 1.
The subject of test [51] is Enterobacter cloacae. Kind of test: In vitro minimal inhibitory concentration (MIC) of compound in combination with piperacillin (PIPC) showed synergic activity against Enterobacter cloacae 40015.
The subject of test [52] is Citrobacter freundii. Description: In vitro minimal inhibitory concentration (MIC) of compound in combination with piperacillin (PIPC) showed synergic activity against Citrobacter freundii 44032.
The subject of test [53] is Klebsiella pneumoniae. Kind of test: In vitro minimal inhibitory concentration (MIC) of compound in combination with piperacillin (PIPC) showed synergic activity against Klebsiella pneumoniae CTX 1.
The subject of test [54] is Klebsiella aerogenes. Description: In vitro minimal inhibitory concentration (MIC) of compound in combination with piperacillin (PIPC) showed synergic activity against Enterobacter aerogenes 41004.
The subject of the next test is Serratia marcescens. Description: In vitro minimal inhibitory concentration (MIC) of compound in combination with piperacillin (PIPC) showed synergic activity against Serratia marcescens 200 L.

Converted amounts (≈) assume the structure as drawn.

Take `CC(C)(O/N=C(\C(=O)N[C@@H]1C(=O)N2C(C(=O)[O-])=C(C[n+]3ccccc3)CS[C@H]12)c1csc(N)n1)C(=O)O` [CEFTAZIDIME]: the MIC in the test on Enterobacter cloacae [1] worked out at 25 µg/mL (≈ 45.7 µM); in the test on Enterobacter cloacae [2], 200 µg/mL (≈ 366 µM); against Pseudomonas aeruginosa [3] it was 25 µg/mL (≈ 45.7 µM); against Proteus vulgaris [4], 12.5 µg/mL (≈ 22.9 µM); against Enterobacter cloacae [5], 2 µg/mL (≈ 3.66 µM); against Pseudomonas aeruginosa [6], 32 µg/mL (≈ 58.5 µM). Moreover, the minimum inhibitory concentration (MIC) in the test on Enterobacter cloacae [7] came out at 2 µg/mL (≈ 3.66 µM); against Enterobacter cloacae [8] it was 100 µg/mL (≈ 183 µM); against Klebsiella aerogenes [9], 12.5 µg/mL (≈ 22.9 µM); with Klebsiella aerogenes [10], 8 µg/mL (≈ 14.6 µM); in the test with Klebsiella aerogenes [11], 200 µg/mL (≈ 366 µM); with Escherichia coli [12], 25 µg/mL (≈ 45.7 µM). The MIC was 16 µg/mL (≈ 29.3 µM) against Pseudomonas aeruginosa [13]; 100 µg/mL (≈ 183 µM) against Klebsiella pneumoniae [14]; 12.5 µg/mL (≈ 22.9 µM) in the test on Escherichia coli [15]; 25 µg/mL (≈ 45.7 µM) against Morganella morganii [16]; above 32 µg/mL in the test with Morganella morganii [16] (Morganella morganii, read-out: MIC); 50 µg/mL (≈ 91.5 µM) against Citrobacter freundii [17]. The MIC against Klebsiella aerogenes [18] is 12.5 µg/mL (≈ 22.9 µM); against Citrobacter freundii [19], 400 µg/mL (≈ 732 µM); against Morganella morganii [20] it was above 32 µg/mL.

`CC(=O)[C@@]1(C)[C@H](C(=O)[O-])N2C(=O)CC2S1(=O)=O.CC(C)(O/N=C(\C(=O)NC1C(=O)N2C(C(=O)[O-])=C(C[n+]3ccccc3)CSC12)c1csc(N)n1)C(=O)O.[Na+]` (stereo unspecified): the MIC with Pseudomonas aeruginosa [21] stood at 6.25 µg/mL; in the test with Citrobacter freundii [22], 12.5 µg/mL; in the test on Enterobacter cloacae [23], 12.5 µg/mL; with Enterobacter cloacae [24] it was 6.25 µg/mL; in the test on Escherichia coli [25], 0.39 µg/mL; in the test with Proteus vulgaris [26], 1.56 µg/mL. Moreover, the MIC in the test with Klebsiella pneumoniae [27] was 1.56 µg/mL; in the test on Morganella morganii [28] it was at most 0.2 µg/mL; in the test on Enterobacter cloacae [29] it was 1.56 µg/mL; in the test with Klebsiella aerogenes [30] it was 1.56 µg/mL; with Citrobacter freundii [31] it was 12.5 µg/mL; in the test on Klebsiella aerogenes [32] it was 1.56 µg/mL. Also, the MIC in the test with Klebsiella aerogenes [33] was found to be 12.5 µg/mL; in the test on Escherichia coli [34], 0.39 µg/mL.

With `CCN1CCN(C(=O)NC(C(=O)N[C@@H]2C(=O)N3[C@@H]2SC(C)(C)[C@@H]3C(=O)O)c2ccccc2)C(=O)C1=O.C[C@]1(Cn2ccnn2)[C@H](C(=O)[O-])N2C(=O)CC2S1(=O)=O.[Na+]` (stereo partly specified), the MIC was 1.56 µg/mL in the test with Proteus vulgaris [35]; 0.78 µg/mL in the test on Escherichia coli [36]; 25 µg/mL in the test with Enterobacter cloacae [37]; 12.5 µg/mL in the test with Klebsiella aerogenes [38]; 3.13 µg/mL with Escherichia coli [39]; 0.78 µg/mL with Citrobacter freundii [40]. Further, the minimum inhibitory concentration (MIC) with Klebsiella aerogenes [41] was 100 µg/mL; with Staphylococcus aureus [42] it was 0.39 µg/mL; in the test with Escherichia coli [43], at most 0.2 µg/mL; in the test with Enterobacter cloacae [44] it was 6.25 µg/mL; in the test with Pseudomonas aeruginosa [45], 12.5 µg/mL; in the test with Escherichia coli [46], 1.56 µg/mL. For the same compound, the MIC in the test on Staphylococcus aureus [47] was 0.78 µg/mL; in the test with Escherichia coli [48], 1.56 µg/mL; with Morganella morganii [49], at most 0.2 µg/mL; in the test with Escherichia coli [50], 3.13 µg/mL; in the test on Enterobacter cloacae [51], 50 µg/mL; with Citrobacter freundii [52], 200 µg/mL. Also, the MIC in the test with Klebsiella pneumoniae [53] worked out at 6.25 µg/mL; in the test on Klebsiella aerogenes [54], 12.5 µg/mL; in the test on Serratia marcescens, 0.78 µg/mL.
